Assay results taken from patent publication US20240336588A1, “COMPOSITIONS AND METHODS FOR ANTIOXIDANT AND ANTI-INFLAMMATORY THERAPEUTICS” (AVANTI BIOSCIENCES INC., priority 2021, published 2024).

Target: DYRK1A (HT-497, 6×His tagged rat truncated DYRK1A isoform X1 residues 1-497) (Rattus norvegicus (Rat), UniProt Q63470)
Test: DYRK1A ELISA assay (HT-PRD phosphorylation)
Format: biochemical
Details: 100 µM ATP, 5 ng HT-497, 30 min at 30° C.
Procedure: Compounds of Table 1, above, were examined in vitro for activity against DYRK1A, DYRK1B, DYRK2 via an ELISA assay.
DYRK1A assay. […] After blocking, wells were washed extensively with dilution buffer before subjecting to phosphorylation. […] At the end point, wells were washed with ˜350 μl dilution buffer three times to terminate the reaction. […] Each point was run in quadruplicate with DMSO present in all assays at 0.2% final concentration. […] HT-PRD phosphorylation was subsequently determined by the sandwich antibody staining protocol, first with 100 μl mouse mAb 3D3 specific for detecting DYRK1A-phosphorylated PRD (60 min at room temperature) then with 100 μl alkaline phosphatase (AP)-linked anti-mouse secondary antibody (60 min at room temperature), followed by colorimetric reaction with 100 μl PNPP solution (PNPP substrate tablet, Thermo Fisher). […] The readings were then recorded for subsequent IC50 calculation. The DYRK1A assay protocol can also support DYRK1B and DYRK2 phosphorylation reactions in the enzyme concentration-dependent manner; therefore, the method was adapted for measuring the activity of candidate compounds against DYRK1B and DYRK2. For DYRK2, the reactions were performed as described above with 6 ng HT-DYRK2 (6×His tagged full-length human DYRK2 isoform 1). For DYRK1B, the assays were also similarly conducted but with 70 ng GST-DYRK1B (glutathione S-transferase tagged full length human DYRK1B isoform p65) and an extended kinase reaction time of 60 min.
Dilution factors for both mAb 3D3 and secondary antibody were pre-determined for each batch of antibody to ensure that neither antibody was limiting in the assay.
Data transformation, calculation, plotting, curve fitting, and IC 50 calculation were performed in KaleidaGraph (http://www.synergy.com/wordpress_650164087; Mac version 4.1). Data was corrected for background (readings from wells with only PNPP) before subsequent manipulations. […] The resulting residual activity was then plotted against its corresponding inhibitor concentrations in semi-log graph and the plot was fit to the sigmoidal equation, y=a+(b−a)/(1+(x/c)^d), for IC50 calculation.

Structure (SMILES) | IC50 [nM]
Nc1ncc(C(=O)O[C@H]2Cc3c(O)cc(O)cc3O[C@@H]2c2ccc(O)c(O)c2)cc1O [Compound 29, (2R,3S)-2-(3,4-dihydroxyphenyl)-5,7-dihydroxychroman-3-yl 6-amino-5-hydroxynicotinate] | > 1000
CS(=O)(=O)Nc1ccc(C(=O)O[C@H]2Cc3c(O)cc(O)cc3O[C@@H]2c2ccc(O)c(O)c2)cc1O [Compound 30, (2R,3S)-2-(3,4-dihydroxyphenyl)-5,7-dihydroxychroman-3-yl 3-hydroxy-4-(methylsulfonamido)benzoate] | > 1000
COc1cc(C(=O)N[C@H]2Cc3c(O)cc(O)cc3O[C@@H]2c2cc(O)c(O)c(O)c2)cc(O)c1O [Compound 10, N-((2R,3S)-5,7-dihydroxy-2-(3,4,5-trihydroxyphenyl)chroman-3-yl)-3,4-dihydroxy-5-methoxybenzamide] | > 1000
O=C(N[C@H]1Cc2c(O)cc(O)cc2O[C@@H]1c1cc(O)c(O)c(O)c1)c1ccc(O)c(O)c1 [Compound 15, N-((2R,3S)-5,7-dihydroxy-2-(3,4,5-trihydroxyphenyl)chroman-3-yl)-3,4-dihydroxybenzamide] | > 1000
O=C(O[C@H]1Cc2c(O)cc(O)cc2O[C@@H]1c1ccc(O)c(O)c1)c1ccc(O)c(O)c1 [Compound 28, (2R,3S)-2-(3,4-dihydroxyphenyl)-5,7-dihydroxychroman-3-yl 3,4-dihydroxybenzoate] | > 1000
CCNC(=O)Oc1c(O)cc([C@H]2Oc3cc(O)cc(O)c3C[C@H]2OC(=O)c2cc(O)c(O)c(O)c2)cc1O [Compound 72, (2R,3R)-2-(4-((ethylcarbamoyl)oxy)-3,5-dihydroxyphenyl)-5,7-dihydroxychroman-3-yl 3,4,5-trihydroxybenzoate] | > 100
O=C(O[C@@H]1Cc2c(O)cc(O)cc2O[C@H]1c1cc(O)c(O)c(O)c1)[C@H]1CC[C@@H](O)CC1 [Compound 43, (2S,3R)-5,7-dihydroxy-2-(3,4,5-trihydroxyphenyl)chroman-3-yl (1s,4S)-4-hydroxycyclohexane-1-carboxylate] | > 1000
CCNC(=O)Oc1c(O)cc(C(=O)O[C@@H]2Cc3c(O)cc(O)cc3O[C@@H]2c2cc(O)c(O)c(O)c2)cc1O [Compound 13, (2R,3R)-5,7-dihydroxy-2-(3,4,5-trihydroxyphenyl)chroman-3-yl 4-((ethylcarbamoyl)oxy)-3,5-dihydroxybenzoate] | > 1000
O=C(O[C@@H]1Cc2c(O)cc(O)cc2O[C@@H]1c1cc(O)c(O)c(O)c1)c1ccc(F)c(F)c1 [Compound 25, (2R,3R)-5,7-dihydroxy-2-(3,4,5-trihydroxyphenyl)chroman-3-yl 3,4-difluorobenzoate] | > 1000
O=C(O[C@@H]1Cc2c(O)cc(O)cc2O[C@H]1c1cc(O)c(O)cc1F)c1cc(O)c(O)c(O)c1F [Compound 48, (2S,3R)-2-(2-fluoro-4,5-dihydroxyphenyl)-5,7-dihydroxychroman-3-yl 2-fluoro-3,4,5-trihydroxybenzoate] | > 100
Nc1ccc(C(=O)O[C@@H]2Cc3c(O)cc(O)cc3O[C@H]2c2cc(O)c(O)c(O)c2)cc1O [Compound 35, (2S,3R)-5,7-dihydroxy-2-(3,4,5-trihydroxyphenyl)chroman-3-yl 4-amino-3-hydroxybenzoate] | > 1000
CCCCCC(=O)Oc1cc(O)c2c(c1)O[C@H](c1cc(O)c(O)c(O)c1)[C@H](OC(=O)c1cc(O)c(O)c(O)c1)C2 [Compound 71, (2R,3R)-7-(hexanoyloxy)-5-hydroxy-2-(3,4,5-trihydroxyphenyl)chroman-3-yl 3,4,5-trihydroxybenzoate] | > 100
COc1cc([C@@H]2Oc3cc(O)cc(O)c3C[C@H]2OC(=O)c2cc(O)c(O)c(O)c2F)cc(O)c1O [Compound 49, (2S,3R)-2-(3,4-dihydroxy-5-methoxyphenyl)-5,7-dihydroxychroman-3-yl 2-fluoro-3,4,5-trihydroxybenzoate] | > 100
O=C(O[C@@H]1Cc2c(O)cc(O)cc2O[C@H]1c1cc(O)c(O)c(O)c1)c1cc(O)c(O)c(OC(F)F)c1 [Compound 60, (2S,3R)-5,7-dihydroxy-2-(3,4,5-trihydroxyphenyl)chroman-3-yl 3-(difluoromethoxy)-4,5-dihydroxybenzoate] | > 100

The next lines start with the values.

IC50 [nM] | Structure (SMILES)
> 100 | CC(C)C(=O)Oc1c(O)cc(C(=O)O[C@@H]2Cc3c(O)cc(O)cc3O[C@@H]2c2cc(O)c(O)c(O)c2)cc1O [Compound 14, (2R,3R)-5,7-dihydroxy-2-(3,4,5-trihydroxyphenyl)chroman-3-yl 3,5-dihydroxy-4-(isobutyryloxy)benzoate]
> 100 | O=C(N[C@H]1Cc2c(O)cc(O)cc2O[C@@H]1c1cc(O)c(O)c(O)c1)c1cc(O)c(O)c(O)c1 [Compound 9, N-((2R,3S)-5,7-dihydroxy-2-(3,4,5-trihydroxyphenyl)chroman-3-yl)-3,4,5-trihydroxybenzamide]
> 100 | O=C(O[C@@H]1Cc2c(O)cc(O)cc2O[C@H]1c1cc(O)c(O)c(O)c1)c1cc(O)c(O)cc1O [Compound 42, (2S,3R)-5,7-dihydroxy-2-(3,4,5-trihydroxyphenyl)chroman-3-yl 2,4,5-trihydroxybenzoate]
> 100 | COc1cc(C(=O)O[C@H]2Cc3c(O)cc(O)cc3O[C@@H]2c2cc(O)c(O)c(O)c2)cc(O)c1O [Compound 18, (2R,3S)-5,7-dihydroxy-2-(3,4,5-trihydroxyphenyl)chroman-3-yl 3,4-dihydroxy-5-methoxybenzoate]
> 100 | O=C(O[C@@H]1Cc2c(O)cc(O)cc2O[C@H]1c1cc(O)c(O)c(O)c1)c1cc(O)c(O)c(F)c1 [Compound 66, (2S,3R)-5,7-dihydroxy-2-(3,4,5-trihydroxyphenyl)chroman-3-yl 3-fluoro-4,5-dihydroxybenzoate]
> 100 | O=C(O[C@@H]1Cc2cccc(O)c2C[C@H]1c1cc(O)c(O)c(O)c1)c1cc(O)c(O)c(O)c1 [Compound 33, (2R,3S)-5-hydroxy-3-(3,4,5-trihydroxyphenyl)-1,2,3,4-tetrahydronaphthalen-2-yl 3,4,5-trihydroxybenzoate]
> 100 | COc1c(O)c(O)cc(C(=O)O[C@@H]2Cc3c(O)cc(O)cc3O[C@H]2c2cc(O)c(O)c(O)c2)c1F [Compound 50, (2S,3R)-5,7-dihydroxy-2-(3,4,5-trihydroxyphenyl)chroman-3-yl 2-fluoro-4,5-dihydroxy-3-methoxybenzoate]
> 100 | COc1c(O)c(O)c(F)c(C(=O)O[C@@H]2Cc3c(O)cc(O)cc3O[C@H]2c2cc(O)c(O)c(O)c2)c1F [Compound 59, (2S,3R)-5,7-dihydroxy-2-(3,4,5-trihydroxyphenyl)chroman-3-yl 2,6-difluoro-3,4-dihydroxy-5-methoxybenzoate]
> 100 | O=C(O[C@@H]1Cc2c(O)cc(O)cc2O[C@H]1c1ccc(O)c(O)c1)c1cc(O)c(O)c(O)c1 [Compound 7, (2S,3R)-2-(3,4-dihydroxyphenyl)-5,7-dihydroxychroman-3-yl 3,4,5-trihydroxybenzoate]
> 100 | COc1cc(C(=O)O[C@@H]2Cc3c(O)cc(O)cc3O[C@@H]2c2cc(O)c(O)c(O)c2)cc(O)c1O [Compound 8, (2R,3R)-5,7-dihydroxy-2-(3,4,5-trihydroxyphenyl)chroman-3-yl 3,4-dihydroxy-5-methoxybenzoate]
< 100 | O=C(O[C@@H]1Cc2c(O)cc(O)cc2O[C@H]1c1cc(O)c(O)c(O)c1F)c1cc(O)c(O)c(O)c1 [Compound 46, (2S,3R)-2-(2-fluoro-3,4,5-trihydroxyphenyl)-5,7-dihydroxychroman-3-yl 3,4,5-trihydroxybenzoate]
